Measurements reported in PMC4890880 (ACS infectious diseases, 2016).
Read-outs that look alike come from different tables or passages of the source.

What was measured:
[1] = tested on: Plasmodium berghei (Pb-Luc) exoerythrocytic-stage parasites; test: microbe, parasite or virus in culture
[2] = tested on: HepG2-A16-CD81EGFP cells; test: cells; conditions: Homo sapiens; for IC50: HepG2, read-out: Tox IC50; for inhibition at 50 µM: HepG2, read-out: Tox max inhibition (%) @ 50 uM
[3] = read-out: Inhibition% @ 50 uM rep1
[4] = read-out: Inhibition% @ 50 uM rep2
[5] = HepG2, read-out: HepG2 Tox% @ 50 uM rep1
[6] = HepG2, read-out: HepG2 Tox% @ 50 uM rep2
[7] = read-out: PbLuc IC50, dose response, 1/3 dilutions, max conc. 10 or 50 uM, unit inferred
[8] = read-out: PbLuc max inhibition (%) @ 50 uM

SMILES | inhibition at 50 µM [1, 3] [%] | inhibition at 50 µM [1, 4] [%] | cytotoxicity at 50 µM [2, 5] [%] | cytotoxicity at 50 µM [2, 6] [%] | IC50 [1, 7] [µM] | inhibition at 50 µM [1, 8] [%] | IC50 [2] [µM] | inhibition at 50 µM [2] [%] | IC50 ([1]; read-out: PbLuc IC50) [µM]
O=C(NCc1ccco1)C1CCN(S(=O)(=O)c2ccc(Br)cc2)CC1 [MMV007430] | 103 | 105 | 28 | 34 | – | – | – | – | –
Cc1ccc(CSCc2ccc(C(=O)NC3CC3)o2)cc1 [MMV007571] | 103 | 103 | 66 | 74 | – | – | – | – | –
COc1ccc(C(=O)C(CCC(CNC(C)(C)C)C(=O)c2ccc(OC)cc2)CNC(C)(C)C)cc1 (stereo not shown) [MMV007591] | 103 | 104 | 101 | – | 7.2 | 99 | 25.3 | 92 | –
CC(=O)NCCc1nc2ccccc2n1Cc1ccc(C(C)C)cc1 [MMV007617] | 104 | 106 | 81 | 80 | – | – | – | – | –
Cc1ccc(C)c(-c2csc(Nc3ccc(C)c(C)c3)n2)c1 [MMV007654] | -107 | -33 | -26 | – | – | – | – | – | –
COc1ccc2c(c1)OC(O)(C(F)(F)C(F)(F)F)CC2=O (stereo not shown) [MMV007839] | 102 | 98 | 96 | 96 | – | – | – | – | –
Cc1ccc(Nc2nc(-c3ccccn3)cs2)cc1 [MMV007907] | 103 | 106 | 93 | 96 | – | – | – | – | –
O=C(O)C1Cc2c([nH]c3ccccc23)C(c2ccc(Cl)cc2Cl)N1 (stereo not shown) [MMV008138] | 88 | 91 | 49 | 53 | – | – | – | – | –
COC(=O)c1ccc(C2C3=C(O)CC(c4ccc(F)cc4)CC3=Nc3ccccc3N2C(=O)c2ccccc2)cc1 (stereo not shown) [MMV011438] | 98 | 96 | -12 | – | 3.16 | 97 | > 50 | 8 | –
Cc1ccc(Nc2nc(N)c3ccccc3n2)cc1Cl [MMV011522] | 100 | 99 | 97 | – | – | – | – | – | –
Nc1ccc(-c2nc3cc(Oc4ccc(Oc5ccc6[nH]c(-c7ccc(N)cc7)nc6c5)cc4)ccc3[nH]2)cc1 [MMV011895] | 98 | 99 | 97 | – | 6.98 | 99 | 12.8 | 100 | –
O=C(Nc1ccc(-c2nc3cc4ccccc4cc3[nH]2)cc1)c1cccc(Br)c1 [MMV019241] | 91 | 91 | 41 | – | – | – | – | – | –
Cc1sc2ncnc(Sc3nc4ccccc4[nH]3)c2c1C [MMV019266] | 98 | 102 | 31 | 47 | 0.53 | 101 | > 50 | 28 | –
c1ccc2c(NCCCCCCNc3c4c(nc5ccccc35)CCCC4)c3c(nc2c1)CCCC3 [MMV019555] | 104 | 104 | 100 | – | – | 100 | 14.5 | 101 | 1.39
COc1ccc(C2NCCc3c2[nH]c2ccccc32)cc1CN1CCN(c2ccc(F)cc2)CC1 (stereo not shown) [MMV019690] | 103 | 103 | 101 | – | 6.28 | 99 | 10.8 | 100 | –
Cc1[nH]c(-c2ccc(F)cc2)cc1C(=O)NC1CCN(Cc2ccccc2)CC1 [MMV019738] | 103 | 102 | 97 | 98 | – | – | – | – | –
Cc1ccc(C)c(Cn2c(N3CCC(C(=O)NCc4cccs4)CC3)nc3ccccc32)c1 [MMV019741] | 103 | 104 | 98 | – | – | – | – | – | –
Cc1ccc(Cl)cc1N1CCN(CCCNC(=O)C2CCN(c3nc4ccccc4[nH]3)CC2)CC1 [MMV019746] | 103 | 105 | 100 | 101 | – | – | – | – | –
Cc1cc(C)c2nc(N3CCC(C(=O)NCCCN4CCC(N5CCCCC5)CC4)CC3)sc2c1 [MMV019780] | 101 | 101 | 98 | 98 | – | – | – | – | –
O=C(NC1CCN(Cc2ccccc2)CC1)c1cc(C(=O)NC2CCN(Cc3ccccc3)CC2)cc(C(=O)NC2CCN(Cc3ccccc3)CC2)c1 [MMV019881] | 104 | 104 | 101 | – | 14.7 | 94 | > 50 | 60 | –
Clc1cc(Br)ccc1-c1ccc(CNCC2CCNCC2)o1 [MMV019918] | 103 | 105 | 97 | 99 | 8.14 | 99 | 15.6 | 100 | –
